The text below walks through data of patent EP2907512A1, “Inhibitors of MMP-12 as antiviral Agents” (COMMISSARIAT A L'ENERGIE ATOMIQUE ET AUX ENERGIES …, priority 2014, dated 2015).

The test system of this assay is HeLa cells. As to the kind of experiment: IFNα secretion (ELISA) and IFNα immunostaining in CVB3-infected HeLa cells pre-treated with inhibitors. In kind it is cell-based. The conditions noted are these: for IFNα secretion: cells infected with CVB3, ELISA of medium, vs DMSO control. A general note: An ELISA detects its analyte on a solid surface through an enzyme-linked reagent.

Consider `Cc1ccc(S(=O)(=O)/C=C/C#N)cc1` [Bay11-7082], for which the IFNα secretion entry was “not secreted”. For the same compound, the “intracellular IFNα staining” value (HeLa cells infected with CVB3 for 4 h, immunostaining) is recorded as “greater intracellular IFNα staining”.
For `N#CC(=C(/N)Sc1ccccc1N)/C(C#N)=C(\N)Sc1ccccc1N` [Compound U0126], the IFNα secretion result is recorded as “secreted”.
